How the values were obtained:
[1] = molar heat capacity at saturation pressure; conditions: Glass
[2] = Crystal
[3] = Molar enthalpy of transition or fusion; conditions: Crystal

CCCO [propan-1-ol]
[1]
Conditions | molar heat capacity [J/K/mol]
84.71 K | 55.24
86.52 K | 56.57
89.38 K | 58.64
92.19 K | 61.1
94.96 K | 66.41

Conditions | Molar enthalpy of transition or fusion [kJ/mol] | Triple point temperature [K]
[2] | – | 148.71
[3] | 5.4 | –

From the NIST ThermoML archive (doi:10.1021/je0499768)
